According to patent US10632179B2, “Methods and compositions for treating cancer” (Case Western Reserve University, priority 2013, dated 2020):

System: heterotopic GBM flank tumor model
Experiment: Heterotopic xenograft flank tumor treatment with peptide
Type: in vivo, nude mice
Design: dose or concentration left out as unconfirmed
Conditions: flank tumors of mice intravenously administered peptide; compared with scrambled control polypeptide; FIG. 2
Procedure: In this Example, we tested the efficacy of the SBK2 peptide in treating primary human brain tumor xenografts. The studies were performed using an imaging dose of the SBK2 peptide probe in 3 sequential injections that were two days apart in a heterotopic GBM flank tumor model.
Human Gli36Δ5 glioblastoma cells constitutively over-express the vIII mutant forms of the EGFR gene (Tyminski E, Leroy S, Terada K, Finkelstein D M, Hyatt J L, Danks M K, Potter P M, Saeki Y, Chiocca E A (2005) Brain tumor oncolysis with replication-conditional herpes simplex virus type 1 expressing the prodrug-activating genes, CYP2B1 and secreted human intestinal carboxylesterase, in combination with cyclophosphamide and irinotecan. Cancer Res 65:6850-6857). Human LN-229 glioblastoma cells were obtained from American Type Culture Collection, Manassas, Va. Gli36Δ5 or LN-229 cells were harvested for flank implantation by trypsinization. […]
On each peptide treatment day, flank tumors were imaged using the Maestro FLEX In Vivo Imaging System. […] Tumors were measured through the skin using calipers; length, width and height of the tumors were recorded on each treatment day. On the day the animals were sacrificed, tumors were measured before removal (through the skin) and after removal.

Sequence: GEGDDFNWEQVNTLTKPTSD [SBK2]
- reduction in tumor volume: 50%
- reduction in weight (flank tumor): 35%
